Reference: PMC10227015, “From a drug repositioning to a structure-based drug design approach to tackle acute lymphoblastic leukemia” (Nature Communications, 2023)

Experiments:
97 kinases = test: Kinome profiling (KINOMEscan, whole panel); assay type: binding, human; settings: OR0642 1 µM
Procedure: (§1) Kinome profiling was provided by Eurofins DiscoverX Corporation. Determination of the % control activity for 97 kinases was obtained through an active site-directed competition binding assay that quantitatively measure interactions between compound and kinases. OR0642 was used at 1 μM.
Supplementary Table 3. KINOMEscan™ Profiling of OR0642. Competition binding assay to quantitatively measure interactions between OR0642 (1 µM) and 97 human kinases and disease relevant mutant variants.
Target Gene Symbol %Control Target Gene Symbol %Control […]

MKNK1 = target: T1, MKNK1 (Homo sapiens, UniProt Q9BUB5); test: KINOMEscan competition binding; settings: OR0642 1 µM; read-out: %Control
T1 construct: purchased Eurofins DiscoverX (KINOMEscan scanEDGE 97)
Procedure: as §1
(§2) Supplementary Table 3. KINOMEscan™ Profiling of OR0642. Competition binding assay to
(§3) quantitatively measure interactions between OR0642 (1 µM) and 97 human kinases and disease
(§4) relevant mutant variants.

[1] = target: T2, ABL1(E255K)-phosphorylated (Homo sapiens, UniProt P00519, E255K); test: KINOMEscan competition binding; settings: OR0642 1 µM; read-out: %Control
T2 construct: purchased Eurofins DiscoverX (KINOMEscan scanEDGE 97)
Procedure: as §1, §2, §3, §4

LKB1 = target: T3, LKB1 (Homo sapiens, UniProt Q15831); test: KINOMEscan competition binding; settings: OR0642 1 µM; read-out: %Control
T3 construct: purchased Eurofins DiscoverX (KINOMEscan scanEDGE 97)
Procedure: as §1, §2, §3, §4

KIT = target: T4, KIT (Homo sapiens, UniProt P10721); test: KINOMEscan competition binding; settings: OR0642 1 µM; read-out: %Control
T4 construct: purchased Eurofins DiscoverX (KINOMEscan scanEDGE 97)
Procedure: as §1, §2, §3, §4

CSNK1G2 = target: T5, CSNK1G2 (Homo sapiens, UniProt P78368); test: KINOMEscan competition binding; settings: OR0642 1 µM; read-out: %Control
T5 construct: purchased Eurofins DiscoverX (KINOMEscan scanEDGE 97)
Procedure: as §1, §2, §3, §4

MET = target: T6, MET (Homo sapiens, UniProt P08581); test: KINOMEscan competition binding; settings: OR0642 1 µM; read-out: %Control
T6 construct: purchased Eurofins DiscoverX (KINOMEscan scanEDGE 97)
Procedure: as §1, §2, §3, §4

IKK-alpha = target: T7, IKK-alpha (Homo sapiens, UniProt O15111); test: KINOMEscan competition binding; settings: OR0642 1 µM; read-out: %Control
T7 construct: purchased Eurofins DiscoverX (KINOMEscan scanEDGE 97)
Procedure: as §1, §2, §3, §4

AXL = target: T8, AXL (Homo sapiens, UniProt P30530); test: KINOMEscan competition binding; settings: OR0642 1 µM; read-out: %Control
T8 construct: purchased Eurofins DiscoverX (KINOMEscan scanEDGE 97)
Procedure: as §1, §2, §3, §4

CSF1R = target: T9, CSF1R (Homo sapiens, UniProt P07333); test: KINOMEscan competition binding; settings: OR0642 1 µM; read-out: %Control
T9 construct: purchased Eurofins DiscoverX (KINOMEscan scanEDGE 97)
Procedure: as §1, §2, §3, §4

BRAF(V600E) = target: T10, BRAF(V600E) (Homo sapiens, UniProt P15056, V600E); test: KINOMEscan competition binding; settings: OR0642 1 µM; read-out: %Control
T10 construct: purchased Eurofins DiscoverX (KINOMEscan scanEDGE 97)
Procedure: as §1, §2, §3, §4

DCAMKL1 = target: T11, DCAMKL1 (Homo sapiens, UniProt O15075); test: KINOMEscan competition binding; settings: OR0642 1 µM; read-out: %Control
T11 construct: purchased Eurofins DiscoverX (KINOMEscan scanEDGE 97)
Procedure: as §1, §2, §3, §4

PIM1 = target: T12, PIM1 (Homo sapiens, UniProt P11309); test: KINOMEscan competition binding; settings: OR0642 1 µM; read-out: %Control
T12 construct: purchased Eurofins DiscoverX (KINOMEscan scanEDGE 97)
Procedure: as §1, §2, §3, §4

CDK11 = target: T13, CDK11 (Homo sapiens, UniProt Q9BWU1); test: KINOMEscan competition binding; settings: OR0642 1 µM; read-out: %Control
T13 construct: purchased Eurofins DiscoverX (KINOMEscan scanEDGE 97)
Procedure: as §1, §2, §3, §4

CSNK1D = target: T14, CSNK1D (Homo sapiens, UniProt P48730); test: KINOMEscan competition binding; settings: OR0642 1 µM; read-out: %Control
T14 construct: purchased Eurofins DiscoverX (KINOMEscan scanEDGE 97)
Procedure: as §1, §2, §3, §4

ALK = target: T15, ALK (Homo sapiens, UniProt Q9UM73); test: KINOMEscan competition binding; settings: OR0642 1 µM; read-out: %Control
T15 construct: purchased Eurofins DiscoverX (KINOMEscan scanEDGE 97)
Procedure: as §1, §2, §3, §4

BRAF = target: T16, BRAF (Homo sapiens, UniProt P15056); test: KINOMEscan competition binding; settings: OR0642 1 µM; read-out: %Control
T16 construct: purchased Eurofins DiscoverX (KINOMEscan scanEDGE 97)
Procedure: as §1, §2, §3, §4

BTK = target: T17, BTK (Homo sapiens, UniProt Q06187); test: KINOMEscan competition binding; settings: OR0642 1 µM; read-out: %Control
T17 construct: purchased Eurofins DiscoverX (KINOMEscan scanEDGE 97)
Procedure: as §1, §2, §3, §4

FAK = target: T18, FAK (Homo sapiens, UniProt Q05397); test: KINOMEscan competition binding; settings: OR0642 1 µM; read-out: %Control
T18 construct: purchased Eurofins DiscoverX (KINOMEscan scanEDGE 97)
Procedure: as §1, §2, §3, §4

ERK1 = target: T19, ERK1 (Homo sapiens, UniProt P27361); test: KINOMEscan competition binding; settings: OR0642 1 µM; read-out: %Control
T19 construct: purchased Eurofins DiscoverX (KINOMEscan scanEDGE 97)
Procedure: as §1, §2, §3, §4

CHEK1 = target: T20, CHEK1 (Homo sapiens, UniProt O14757); test: KINOMEscan competition binding; settings: OR0642 1 µM; read-out: %Control
T20 construct: purchased Eurofins DiscoverX (KINOMEscan scanEDGE 97)
Procedure: as §1, §2, §3, §4

PAK2 = target: T21, PAK2 (Homo sapiens, UniProt Q13177); test: KINOMEscan competition binding; settings: OR0642 1 µM; read-out: %Control
T21 construct: purchased Eurofins DiscoverX (KINOMEscan scanEDGE 97)
Procedure: as §1, §2, §3, §4

[2] = target: T22, ABL1(T315I)-phosphorylated (Homo sapiens, UniProt P00519, T315I); test: KINOMEscan competition binding; settings: OR0642 1 µM; read-out: %Control
T22 construct: purchased Eurofins DiscoverX (KINOMEscan scanEDGE 97)
Procedure: as §1, §2, §3, §4

PAK1 = target: T23, PAK1 (Homo sapiens, UniProt Q13153); test: KINOMEscan competition binding; settings: OR0642 1 µM; read-out: %Control
T23 construct: purchased Eurofins DiscoverX (KINOMEscan scanEDGE 97)
Procedure: as §1, §2, §3, §4

ERBB4 = target: T24, ERBB4 (Homo sapiens, UniProt Q15303); test: KINOMEscan competition binding; settings: OR0642 1 µM; read-out: %Control
T24 construct: purchased Eurofins DiscoverX (KINOMEscan scanEDGE 97)
Procedure: as §1, §2, §3, §4

BMPR2 = target: T25, BMPR2 (Homo sapiens, UniProt Q13873); test: KINOMEscan competition binding; settings: OR0642 1 µM; read-out: %Control
T25 construct: purchased Eurofins DiscoverX (KINOMEscan scanEDGE 97)
Procedure: as §1, §2, §3, §4

PIK3CA = target: T26, PIK3CA (Homo sapiens, UniProt P42336); test: KINOMEscan competition binding; settings: OR0642 1 µM; read-out: %Control
T26 construct: purchased Eurofins DiscoverX (KINOMEscan scanEDGE 97)
Procedure: as §1, §2, §3, §4

AKT2 = target: T27, AKT2 (Homo sapiens, UniProt P31751); test: KINOMEscan competition binding; settings: OR0642 1 µM; read-out: %Control
T27 construct: purchased Eurofins DiscoverX (KINOMEscan scanEDGE 97)
Procedure: as §1, §2, §3, §4

GSK3B = target: T28, GSK3B (Homo sapiens, UniProt P49841); test: KINOMEscan competition binding; settings: OR0642 1 µM; read-out: %Control
T28 construct: purchased Eurofins DiscoverX (KINOMEscan scanEDGE 97)
Procedure: as §1, §2, §3, §4

MKNK2 = target: T29, MKNK2 (Homo sapiens, UniProt Q9HBH9); test: KINOMEscan competition binding; settings: OR0642 1 µM; read-out: %Control
T29 construct: purchased Eurofins DiscoverX (KINOMEscan scanEDGE 97)
Procedure: as §1, §2, §3, §4

CDK9 = target: T30, CDK9 (Homo sapiens, UniProt P50750); test: KINOMEscan competition binding; settings: OR0642 1 µM; read-out: %Control
T30 construct: purchased Eurofins DiscoverX (KINOMEscan scanEDGE 97)
Procedure: as §1, §2, §3, §4

ACVR1B = target: T31, ACVR1B (Homo sapiens, UniProt P36896); test: KINOMEscan competition binding; settings: OR0642 1 µM; read-out: %Control
T31 construct: purchased Eurofins DiscoverX (KINOMEscan scanEDGE 97)
Procedure: as §1, §2, §3, §4

EGFR(L858R) = target: T32, EGFR(L858R) (Homo sapiens, UniProt P00533, L858R); test: KINOMEscan competition binding; settings: OR0642 1 µM; read-out: %Control
T32 construct: purchased Eurofins DiscoverX (KINOMEscan scanEDGE 97)
Procedure: as §1, §2, §3, §4

SMILES: CCCN(c1nc(-c2nc(N)cc(N)n2)cs1)c1cc(-c2ccc(S(=O)(=O)N3CCN(C)CC3)cc2C(F)(F)F)ccc1C [OR0642]
- kinome-wide profiling (97 kinases): none of the 97 kinases tested was inhibited
- remaining binding at 1 µM (MKNK1): 100%
- remaining binding at 1 µM [1]: 96%
- remaining binding at 1 µM (LKB1): 99%
- remaining binding at 1 µM (KIT): 91%
- remaining binding at 1 µM (CSNK1G2): 91%
- remaining binding at 1 µM (MET): 100%
- remaining binding at 1 µM (IKK-alpha): 65%
- remaining binding at 1 µM (AXL): 89%
- remaining binding at 1 µM (CSF1R): 100%
- remaining binding at 1 µM (BRAF(V600E)): 98%
- remaining binding at 1 µM (DCAMKL1): 81%
- remaining binding at 1 µM (PIM1): 100%
- remaining binding at 1 µM (CDK11): 100%
- remaining binding at 1 µM (CSNK1D): 100%
- remaining binding at 1 µM (ALK): 80%
- remaining binding at 1 µM (BRAF): 99%
- remaining binding at 1 µM (BTK): 92%
- remaining binding at 1 µM (FAK): 100%
- remaining binding at 1 µM (ERK1): 86%
- remaining binding at 1 µM (CHEK1): 91%
- remaining binding at 1 µM (PAK2): 98%
- remaining binding at 1 µM [2]: 89%
- remaining binding at 1 µM (PAK1): 100%
- remaining binding at 1 µM (ERBB4): 100%
- remaining binding at 1 µM (BMPR2): 94%
- remaining binding at 1 µM (PIK3CA): 100%
- remaining binding at 1 µM (AKT2): 100%
- remaining binding at 1 µM (GSK3B): 100%
- remaining binding at 1 µM (MKNK2): 79%
- remaining binding at 1 µM (CDK9): 98%
- remaining binding at 1 µM (ACVR1B): 86%
- remaining binding at 1 µM (EGFR(L858R)): 72%
